Reference: patent US20210214368A1, “COMPOUNDS FOR THIOL-TRIGGERED COS AND/OR H2S RELEASE AND METHODS OF MAKING AND USING THE SAME” (University of Oregon, priority 2018, published 2021)

Columns and labels:
[1] = tested on: HeLa cells; experiment: Cytotoxicity in HeLa cells (CCK-8); format: cell-based; details: 6.25-50.0 μM, 30 minutes
Method: In this example, H2S delivery from compound 202a in HeLa cells was evaluated. To determine whether compound embodiments of the present disclosure can be activated to release COS/H2S in cellular environment, HeLa cells were treated with compound 202a under different conditions. HeLa cells were treated with compound 202a (50 μM) or compound 204 (50 μM) and H2S release was monitored using C7-Az, a H2S-responsive fluorescent probe. […] To confirm that compound 202a was not cytotoxic, confluent HeLa cells were incubated in FBS-free DMEM containing vehicle (0.5% DMSO), and compound 202a (6.25-50.0 μM) for 30 minutes in a 96-well plate. The culture media were then removed and 100 μL of FBS-free DMEM containing 10% CCK-8 solution was added to each well, and cells were incubated for 2 hours at 37° C. The absorbance at 450 nm was measured by using a microplate reader (see FIG. 8). The cell viability was measured and normalized to the vehicle group. The results are expressed as mean t SEM (n=6).

[2] = tested on: RAW 264.7 cells; experiment: Cytotoxicity in RAW 264.7 cells (CCK-8); format: cell-based; details: concentrations up to 25 μM, 2 hours
Method: In this example, cytoprotective activity of compound 202a against LPS-induced inflammation was evaluated. […] The compounds of the present disclosure were therefore evaluated to determine their anti-inflammatory activities due to H2S release. RAW 264.7 cells were incubated with compound 202a (0-25 μM) for 2 hours, followed by a 24-hour incubation with lipopolysaccharide (LPS, 0.5 μg/mL) to trigger the inflammatory response. The inflammation event usually results in the NO generation, which can be monitored by measuring nitrite (NO2—) accumulation. […] In particular, confluent RAW 264.7 cells were incubated in FBS-free DMEM containing vehicle (0.5% DMSO), compound 202a, BnSH, and compound 204 (10.0-100 μM) for 2 hours in a 96-well plate. The culture media were then removed and 100 μL of FBS-free DMEM containing 10% CCK-8 solution was added to each well, and cells were incubated for 2 hours at 37° C. The absorbance at 450 nm was measured by using a microplate reader (FIG. 9). The cell viability was measured and normalized to the vehicle group. The results are expressed as mean t SEM (n=6).

[3] = Cys-triggered fluorescence turn on in PBS; details: for fluorescence response to Cys: compound 10 μM, Cys 100 μM, PBS pH 7.4
Method: Representative Measurement of Fluorescence Intensity of Compound Embodiments—A freshly prepared compound 202a stock solution (3.00 μL, 10.0 mM in DMSO) was added to 3.00 mL of PBS (Ph 7.40, 10.0 Mm) containing CA (25.0 μg/mL) in a quartz fluorescence cuvette. A Cys stock solution (10.0 mM) was then added to reach the desired working concentration. The reaction solution was excited at 490 nm and the fluorescence intensity (500-650 nm) was measured and recorded using a Quanta Master 40 spectrofluorometer.
In this example, it was determined that Cys-induced compound 202a activation can be monitored by tracking the fluorescein formation and accompanied fluorescence response, and, in some embodiments, the reaction proceeds more quickly when higher concentrations of thiols are added. Time-dependent fluorescence spectra (FIG. 2A) and UV-vis spectra (FIG. 2B) of a particular compound embodiment, compound 202a, (10 μM) in PBS buffer (pH 7.4, 10 mM) containing Cys (100 μM) and CA (25 μg/mL) were obtained using a fluorescence spectrometer. […] Fluorescein formation was also confirmed by UV-vis spectroscopy under the identical conditions (FIG. 2B). Specifically, a freshly prepared compound 202a stock solution (3.00 μL, 10.0 mM in DMSO) was added to 3.00 mL of PBS (pH 7.40, 10.0 mM) containing CA (25.0 μg/mL) in a quartz UV cuvette. A Cys stock solution (30.0 μL, 10.0 mM in H2O) was then added. The absorbance (350-600 nm) was measured for 3 hours using a Cary 100 spectrometer. A Cys-dependent fluorescence enhancement was observed when treating compound 202a (10 μM) with increasing concentrations of Cys (1-20 equiv.), indicating a high sensitivity of compound 202a towards Cys. […] In addition, to confirm the H2S delivery from compound 202a, compound 202a (10 μM) was treated with Cys (100 μM) in PBS containing CA (25 μg/mL) and quantified H2S release using the MB assay. […] Optical measurement conditions were as follows: […], and slit width=0.3 mm.

[4] = tested on: porcine liver esterase (PLE); experiment: Esterase stability of the sulfenyl thiocarbonate group (fluorescence); format: in vitro ADME; details: compound 10 μM, PLE 1 U/mL, 2-hour incubation
Method: Compound 202a also (10 μM) was incubated with RSONs (100 μM), such as H2O2, ClO^−, O2^−, TBHP, Ser, Lys, Gly, GSSG, and GSNO, and COS/H2S release was monitored by tracking the fluorescein formation. […] Because the carbonate functional group may be sensitive to esterase-catalyzed hydrolysis, the esterase stability of the sulfenyl thiocarbonate group also was evaluated by incubating compound 202a (10 μM) with porcine liver esterase (PLE, 1 U/mL).

[5] = Selectivity of fluorescence turn on to cellular RSONs and thiols; details: 10 μM, PBS at physiological pH, 2 hours
Method: Representative Procedure for Evaluating Selectivity of Compound EmbodIments to Cellular RSONs—To 3.00 mL of PBS was added a stock solution of compound 202a (3.00 μL, 10.0 mM in DMSO), followed by the addition of RSON stock solution (30.0 μL, 10.0 mM in H2O). After 2 hours of incubation at room temperature, the solution was excited at 490 nm and the fluorescence intensity (500-650 nm) was measured and recorded by using a Quanta Master 40 spectrofluorometer. For the NEM-pretreated group, NEM (30.0 μL, 1.00 M) was added to PBS (3.00 mL) containing CA (25.0 μg/mL) and Cys (100 μM). The solution was then incubated for 1 hour before adding the compound 202a stock solution (3.00 μL, 10.0 mM in DMSO).
In this example, fluorescence turn on of compound 202a (10 μM) in the presence of cellular reactive sulfur, oxygen, and nitrogen species (RSONs) (100 μM) was evaluated. […] Compound 202a (10 μM) was incubated with GSH, homocysteine (Hcy), N-acetyl cysteine (NAC), penicillamine (PEN), or bovine serum albumin (BSA) (100 μM), in PBS buffer (pH 7.4, 10 mM) containing CA (25 μg/mL) and the fluorescent intensity was measured after 2 hours. […]
Compound 202a also (10 μM) was incubated with RSONs (100 μM), such as H2O2, ClO^−, O2^−, TBHP, Ser, Lys, Gly, GSSG, and GSNO, and COS/H2S release was monitored by tracking the fluorescein formation. […]

[6] = Thiol-triggered H2S release in PBS containing CA (MB assay); details: for GSH-triggered H2S release: PBS containing GSH and CA
Method: To evaluate thiol effects on COS/H2S release from cyclic perthiocarbamate compound embodiments, compound 306a (50 μM) was incubated in PBS (pH 7.4, 10 mM) containing Cys or GSH (up to 4.0 mM) and CA (25 μg/mL) and H2S release was monitored by MB assay. […] Additionally, other thiol triggers, such as cysteine, homocysteine, and N-acetyl cysteine, were combined with compound 306a to evaluate if they would trigger the compound to release H2S.
In this example, GSH-triggered H2S release from compound 900 was evaluated. […] To improve the H2S releasing capacity of ATB-346, compound 900 was made by reacting ATB-346 with chlorocarbonyl sulfenyl chloride reagent (see Scheme 9). The resultant compound 900 was then added to PBS containing GSH and CA.
Release of H2S from compound 404c (25 μM) in the presence of L-cysteine or reduced glutathione (GSH) (500 μM, 20 equiv.) measured by the spectrophotometric methylene blue assay, with results shown in FIG. 17.
In this example, additional compounds, such as cyclic sulfenyl thiocarbamate compounds 306a-306e, were evaluated for their ability to release H2S upon exposure to a biological thiol, cysteine.
With the hybrid NSAID in hand, COS/H2S release in aqueous buffer was evaluated.

[7] = tested on: RAW 264.7 cells; experiment: Anti-inflammatory activity: LPS-induced NO2- accumulation (Griess); format: cell-based; details: pretreatment 25 μM for 2 hours, then LPS 0.500 μg/mL 24 hours
Method: Representative Procedure for Determining Anti-Inflammatory Activities of Compound Embodiments and Control Compounds—Macrophage RAW 264.7 cells were seeded in a 24-well plate (5×10^5 cells/well) containing 0.500 mL of DMEM and incubated at 37° C. under 5% CO2 for 24 hours. The confluent cells were washed with PBS and incubated with either compound 202a (0-25.0 μM), or GYY4137 (25.0 μM) at 37° C. for 2 hours. Compounds were then removed by washing cells with PBS and these pretreated cells were incubated in FBS-free DMEM containing LPS (0.500 μg/mL) for 24 hours. NO2— levels were measured by using a Griess Reagent Kit.

[8] = Spectroscopic properties in PBS buffer (pH 7.4, 10 mM); format: physicochemical; details: PBS (pH 7.4, 10 mM)
Method: In this example, the spectroscopic properties in PBS buffer (pH 7.4, 10 mM) of compounds 202a-202d, and control compound 204. Compounds 202a-202c and control compound 204 were not absorptive in the visible region and are all these compounds were not fluorescent because the fluorescein unit is locked in the closed lactone form.

[9] = tested on: RAW 264.7 cells; details: 100-1000 μM and 24-hour incubation; cited from earlier work
[10] = tested on: HeLa cells; experiment: Cellular imaging of H2S delivery in HeLa cells with C7-Az probe; format: cell-based; details: compound 50 μM, C7-Az 50 μM, 30 minutes
Method: HeLa cells were then plated in poly-D-lysine coated plates (MatTek) containing 2.00 mL of DMEM and incubated at 37° C. under 5% CO2 for 24 hours. The confluent cells were washed with PBS and then co-incubated with NucRed nuclear dye (2 drops), C7-Az (50.0 μM), and compound 202a (50.0 μM) for 30 minutes. Prior to imaging, the cells were washed with PBS and bathed in 2.00 mL of PBS. Cell imaging was performed on a Leica DMi8 fluorescent microscope. […] To confirm that compound 202a was not cytotoxic, confluent HeLa cells were incubated in FBS-free DMEM containing vehicle (0.5% DMSO), and compound 202a (6.25-50.0 μM) for 30 minutes in a 96-well plate. The culture media were then removed and 100 μL of FBS-free DMEM containing 10% CCK-8 solution was added to each well, and cells were incubated for 2 hours at 37° C. The absorbance at 450 nm was measured by using a microplate reader (see FIG. 8). The cell viability was measured and normalized to the vehicle group. The results are expressed as mean t SEM (n=6).

O=C(Oc1ccc2c(c1)Oc1cc(OC(=O)SSCc3ccccc3)ccc1C21OC(=O)c2ccccc21)SSCc1ccccc1 [Compound 202a]
cytotoxicity in HeLa cells [1]: not cytotoxic | cytotoxicity in RAW 264.7 cells [2]: did not induce cytotoxicity | fluorescent signal in the absence of Cys (stability in aqueous buffer) ([3]; compound 10 μM in PBS, no Cys): No fluorescent signal was observed | fluorescence with porcine liver esterase [4]: slight fluorescence turn on | stability in PBS in the absence of thiols [5]: stable

COc1ccc2cc(C(C)C(=O)Oc3ccc(-c4nc(=O)ss4)cc3)ccc2c1 (centres unmarked) [Compound 900]
GSH-triggered H2S release [6]: promising H2S release was observed | thiol-triggered H2S release in buffer with CTAB ([6]; compound 50 μM, PBS pH 7.4, CTAB 1.0 mM, CA 25 μg/mL, Cys or GSH 1.0 mM): thiol-triggered H2S release was immediately observed

COc1ccc2cc(C(C)C(=O)Oc3ccc(C(N)=S)cc3)ccc2c1 (centres unmarked) [ATB-346, reference compound]
GSH-triggered H2S release [6]: not detected

SCc1ccccc1 [benzyl mercaptan]
anti-inflammatory activity at 25 μM (NO2− production) [7]: none of these species exhibited anti-inflammatory activities

O=C(Oc1ccc2c(c1)Oc1cc(O)ccc1C21OC(=O)c2ccccc21)SSCc1ccccc1 (centres unmarked) [Compound 202d]
fluorescence response to Cys [3]: minimal fluorescence enhancement | Φ [8]: 0.11 ± 0.01 | ε [8]: 27,300 ± 2500 M^−1cm^−1 | λem [8]: 514 nm | λmax [8]: 449 nm

O=c1ssc(=O)n1-c1ccc(Cl)cc1 [Compound 404c]
COS released on reaction with thiols ([6]; compound 25 μM, L-cysteine or GSH 500 μM (20 equiv.), CA, MB assay): two equivalents of COS

C1COCCN1.COc1ccc(P(=S)(S)N2CCOCC2)cc1 (centres unmarked) [GYY4137]
anti-inflammatory activity at 25 μM (NO2− production) [7]: such cytoprotection was not observed | anti-inflammatory effects at higher concentration and longer incubation [9]: anti-inflammatory effects

O=C(Oc1ccc2c(c1)Oc1cc(OC(=O)SCc3ccccc3)ccc1C21OC(=O)c2ccccc21)SCc1ccccc1 [Compound 204]
anti-inflammatory activity at 25 μM (NO2− production) [7]: none of these species exhibited anti-inflammatory activities | fluorescence response to Cys [3]: No fluorescence response | C7-Az (H2S probe) fluorescence in HeLa cells [10]: failed to turn on the fluorescence
